Laboratory results: US4593043A, “Mercapto acyl-carnitines and pharmaceutical compositions containing same” (Sigma-Tau Industrie Farmaceutiche Riunite S.p.A., priority 1981, dated 1986)
Where a name gives a salt, the structure may show the parent alone.

How the values were obtained:
[1] = Acute toxicity in the mouse, Weil method; settings: in vivo, ip
From the text: The acute toxicity of the compounds of general formula (I) has been studied in the mouse with the Weil method (Weil C. S., Biometer. J. 8, 249, 1952).
The LD50 values of some compounds illustrated in Table I, indicate that the compounds are remarkably well tolerated. PG,20
general formula (I). Weil's method (N = 5, K = 4) Cl = hydro-

[2] = test system: damage provoked by irradiation in rats; assay: Protection against X-ray exposure (survival after irradiation); assay type: in vivo, Albino Wister rats; settings: 30-40 mg Kg^-1 1 hour before irradiation and 15 mg Kg^-1 per day in the subsequent 20 days
Procedure: The effect of the compounds of formula (I) towards the damages provoked by X-ray exposure was studied.
The experiment animals, Albino Wister rats, treated with the compounds under examination (30-40 mg Kg^-1 1 hour before irradiation and 15 mg Kg^-1 per day in the subsequent 20 days) were irradiated and checked over a time period to detect the onset of toxic effects and the time of survival with respect to the control group. […]

[3] = test system: burned cutaneous area of the back; assay: Cutaneous regeneration from burns; assay type: in vivo; settings: rabbits, oral, 20 mg Kg^-1 once a day for seven days; for Percentage of regenerated tissue, 4th day: 4th day from treatment; for Percentage of regenerated tissue, 8th day: 8th day from treatment
Procedure: The ability of the compounds of formula (I) to speed up the cutaneous regeneration from burns has been tested in rabbits.
A 4 cm^2 cutaneous area of the average-top zone of the test animal back was burned.
The compounds were orally administered in aqueous solution at the dose of 20 mg Kg^-1 once a day for seven days. The area of cutaneous regeneration, i.e. the area of the newly formed tissue was then measured (Table III).

bronchial secretion = assay: Expectorant activity (bronchial secretion), method of Perry et al.; assay type: in vivo, male rabbits; settings: rabbits; for Percentage variations of bronchial secretion, 1 hour: 1 hour after administration; for Percentage variations of bronchial secretion, 2 hours: 2 hours after administration; for Percentage variations of bronchial secretion, 4 hours: 4 hours after administration
Procedure: The tests were carried out on male rabbits, weighing 2-3 Kg, anesthetized with ethyl urethane, by following the method disclosed by Perry et al. (J. Pharm. Exp. Ther. 73, 65, 1941).
Each cannula was connected to a feeding device which delivered a steady flow-rate of pre-heated air (36°-38° C.) at constant humidity (80%). At the lower end of each cannula, a graduated cylinder was fitted, wherein the bronchial secretion was collected. All of the animals breathed spontaneously and consequently they self-regulated the air intake suitable for normal respiration. […] Each dose of drug was administered to 5 animals. The control animals (8) were given water only. The amount of secretion was determined after 1, 2 and 4 hours from administration.

[4] = Mucolytic activity in vitro on human sputum (thromboelastograph, method of Morandini et al.); settings: for Percentage drop ± s.e. of the tracing versus maximum peak (mucolytic activity index), dilution 1/30: 1 ml of a 10% solution at dilution 1/30; for Percentage drop ± s.e. of the tracing versus maximum peak (mucolytic activity index), dilution 1/60: 1 ml of a 10% solution at dilution 1/60
Procedure: The tests were carried out in vitro by using the method disclosed by Morandini et al. (Lotta contro la tubercolosi 47, n. 4, 1977). A thromboelastograph was used to follow the variations induced by the compounds of general formula (I) and acetylcisteine on the rheological properties of human sputum.

[5] = mice, ep, Weil's method (N = 5, K = 4)

Row | SMILES | LD50 [1] [mg/kg] | Percentage of surviving animals [2] [%] | Percentage of surviving animals, day 10 from irradiation [2] [%] | Percentage of surviving animals, day 20 from irradiation [2] [%] | Percentage of regenerated tissue, 4th day [3] [%] | Percentage of regenerated tissue, 8th day [3] [%] | Percentage variations of bronchial secretion, 1 hour (bronchial secretion; 15 mg oral) | Percentage variations of bronchial secretion, 2 hours (bronchial secretion; 15 mg oral) | Percentage variations of bronchial secretion, 4 hours (bronchial secretion; 15 mg oral) | Percentage drop ± s.e. of the tracing versus maximum peak (mucolytic activity index), dilution 1/30 [4] [%] | Percentage drop ± s.e. of the tracing versus maximum peak (mucolytic activity index), dilution 1/60 [4] [%] | Percentage variations of bronchial secretion, 1 hour (bronchial secretion; 10 mg oral) | Percentage variations of bronchial secretion, 2 hours (bronchial secretion; 10 mg oral) | Percentage variations of bronchial secretion, 4 hours (bronchial secretion; 10 mg oral) | LD50 [1, 5] [mg/kg] | Percentage variations of bronchial secretion, 1 hour (bronchial secretion; 20 mg oral) | Percentage variations of bronchial secretion, 2 hours (bronchial secretion; 20 mg oral) | Percentage variations of bronchial secretion, 4 hours (bronchial secretion; 20 mg oral)
1 | CCC(S)C(=O)OC(CC(=O)O)C[N+](C)(C)C (stereo not shown) [2-mercapto butyryl carnitine Cl] | 294 | 70 | 100 | 85 | 35 | 95 | +0.5% | +0.9% | +2.3% | 85.3 ± 4 | 38.4 ± 5 |  |  |  |  |  |  | 
2 | CC(S)C(=O)OC(CC(=O)O)C[N+](C)(C)C (stereo not shown) [2-mercapto propionyl carnitine Cl] | 294 | 45 | 80 | 70 | 30 | 65 |  |  |  | 85.4 ± 6 | 46.5 ± 6 | +0.1% | +0.2% | +2.0% |  |  |  | 
3 | C[N+](C)(C)CC(CC(=O)O)OC(=O)CCS (stereo not shown) [3-mercapto propionyl carnitine Cl, 3-mercapto propionyl carnitine hydrochloride] |  | 60 | 90 | 80 | 40 | 80 | -0.2% | +0.4% | +1.1% |  |  |  |  |  | 312 |  |  | 
4 | C[N+](C)(C)CC(CC(=O)O)OC(=O)CCCS (stereo not shown) [4-mercapto butyryl carnitine Cl, 4-mercapto butyryl carnitine hydrochloride] |  | 55 | 100 | 80 | 25 | 70 |  |  |  |  |  |  |  |  | 303 | +0.4% | +0.6% | +1.2%
5 | C[N+](C)(C)CC(CC(=O)O)OC(=O)CCCCS (stereo not shown) [5-mercapto valeryl carnitine Cl] | 281 | 50 | 95 | 70 | 20 | 60 | +0.6% | -0.3% | +1.4% | 90.3 ± 6 | 48.3 ± 6 |  |  |  |  |  |  | 
6 | CC(=O)N[C@@H](CS)C(=O)O [Acetylcysteine, reference compound] |  |  |  |  |  |  |  |  |  | 75.7 ± 7 | 22.3 ± 4 |  |  |  |  |  |  | 
7 | C[N+](C)(C)CC(CC(=O)O)OC(=O)CS (stereo not shown) [mercapto acetyl carnitine Cl] | 308 | 30 | 85 | 45 | 35 | 70 |  |  |  | 78.3 ± 5 | 45.2 ± 4 | +0.3% | +0.9% | +2.4% |  |  |  | 
